Source: publication PMC8524854, “A novel dual-prodrug carried by cyclodextrin inclusion complex for the targeting treatment of colon cancer” (Journal of Nanobiotechnology, 2021)
Where two headings read alike, the source gives them in different places. Marks after values point to notes of the source that are not given here.

What was measured:
[1] = In vitro release of BBA by dialysis method; type: physicochemical; conditions: during the first 24 h, PBS with 0.5% Tween 80, pH 7.4, 37 °C
Experimental: Release of BBA from BBA/CM-β-CD and BBA/FA-PEG-CM-β-CD was investigated in vitro using the dialysis method. […] At different time points (0.25, 0.5, 1, 2, 3, 4, 6, 8, 12, 48, 72 and 96 h), 1.0 mL of release medium was removed and replaced with fresh medium.

[2] = test system: CaCo-2 cells; assay: MTT cell-growth inhibition; type: cell-based, human; conditions: 24 h, 48 h, 72 h, 5-FU at 20 μg/mL
Experimental: (§1) CaCo-2 and SW620 cells were used as model cells to evaluate the anticancer effects in vitro. Single-cell suspension was prepared with DMEM containing 10% Gibco FBS and 1% penicillin–streptomycin. The cells were seeded in a 96-well plate (3500 cells/well) and incubated respectively for 24 h, 48 h, and 72 h at 37 °C with 5% CO2. […] The medium was removed, and cells were washed three times with PBS before incubation with MTT for 4 h at 37 °C. After the medium was removed, 100 μL of DMSO was added to the well for 10 min. The absorbance of the solution was measured at 570 nm by Multimode Reader (Bio Tek Synergy H1).

[3] = test system: SW620 cells; assay: MTT cell-growth inhibition; type: cell-based, human; conditions: 24 h, 48 h, 72 h, 5-FU at 20 μg/mL
Experimental: as §1

[4] = test system: SW620 cells; assay: Cell apoptosis, Annexin V/PI flow cytometry; type: cell-based, human; conditions: 30 μM, 48 h
Experimental: For the cell apoptosis detection, the cells in the different groups were washed three times with PBS and incubated with Annexin V-FITC solution for 10 min. Then, flow cytometry analysis was performed to detect the FITC and PI fluorescent intensity and report the percentage of the cell population within each plot quadrant.

[5] = test system: SW620 xenografts; assay: H&E pathological analysis of tumor tissue (necrosis rate); type: in vivo, nude mice; conditions: 15 days post-administration
Experimental: (§2) 15 days post-administration, all nude mice were sacrificed. The tumor tissues were collected, stained with H&E, and observed under an inverted microscope (400 ×). In addition, the TUNEL test was performed to detect cell apoptosis. Meanwhile, the expressions of both VEGFR-3 and Ki-67 were detected by ELISA.

[6] = Pharmacokinetics: butyric acid in plasma after gavage; type: in vivo, SW620 tumor-bearing BALB/C nude mice; conditions: gavage 0.366 g/kg
Experimental: SW620 tumor-bearing mice were randomly divided into 3 groups (n = 5). […] The blood was collected respectively from the heart at 0.25, 0.5, 1, 2, 3, 4, 6, 8, 12, 24, 36, 48, and 72 h after administration. The whole blood was quickly centrifuged at 2000 × g for 5 min, and the upper plasma was precisely aspirated. Then 0.35 mL of methanol was added, vortexed for 2 min, and centrifuged at 3350 × g for 15 min. The supernatant was used to detect butyric acid by HPLC [45]. The pharmacokinetic parameters were calculated by non-compartmental analysis using Drug Analysis System (DAS 2.1.1, Shanghai, China).

[7] = test system: VEGFR-3; assay: VEGFR-3 expression in tumor tissue; type: in vivo, nude mice; conditions: tumor tissue of SW620 xenografts
Experimental: as §2

[8] = test system: SW620 xenografts; assay: TUNEL test of tumor tissue (apoptosis rate); type: in vivo, nude mice; conditions: 15 days post-administration
Experimental: as §2

[9] = test system: SW620 xenografts; assay: Pharmacodynamic evaluation, tumor growth inhibition; type: in vivo, BALB/C nude mice; conditions: every two days for 7 times, tumor weight on day 25 post-implantation
Experimental: Ten days after tumor transplantation, the SW620 tumor-bearing mice were randomly divided into 8 groups with 5 mice in each group when the tumors reached about 100 mm^3. The animals were weighed before treatment, and the measurement was continued every 2 days. The two axes of the tumor were measured with a vernier micrometer (L, longest axis; W, shortest axis). Tumor volume (mm^3) was calculated as ½ (L × W^2). Anti-tumor activity was evaluated by tumor growth inhibition (TGI), which was the mean tumor weight (MTW) of the treated group (TG) relative to the saline-treated control group (CG) on day 15, as calculated according to the formula [47]. […].

[10] = test system: Kunming mice; type: in vivo; conditions: for Bodyweight End: end of 14 d observation; for Amount (start/end), survival: observed 14 d
Experimental: All animals were given a single oral gavage of 0.2 mL of different dosage forms, and their body weight was monitored every day. Meanwhile, the toxicity and mortality of all animals were observed every day. The conventional changes such as the cases of the diet, urine, and feces were recorded. On the 15th day after treatment, the blood of each group was collected from the heart and centrifuged at 1,000 × g for 10 min to collect serum. An automated biochemical analyzer was used to detect serum alanine aminotransferase (ALT), aspartate aminotransferase (AST), blood urea nitrogen (BUN), and creatinine (Cr). Meanwhile, the heart, liver, lung, and kidney were quickly excised, washed with normal saline, and weighed. The visceral index is estimated according to the following formula as Viscera Index (%) = Viscera Weight / Body Weight × 100. And then, all the tissues were fixed with 10% formalin and stained with hematoxylin & eosin (H&E) for pathological analysis.

[11] = test system: SW620 cells; assay: Cell cycle analysis, propidium iodide flow cytometry; type: cell-based, human; conditions: 48 h
Experimental: For the cell cycle analysis, the cells in the different groups were washed three times with PBS and incubated with 1 mL of pre-cooled 70% alcohol at 4 °C for 24 h. After the cells were fixed, centrifuged at 300 × g for 5 min to collect the cells. 1 mL of cold PBS was added to re-suspend the cells and centrifuged at 300 × g for 5 min to remove the supernatant. 10 μL of RNaseA (50 ×) and 25 μL of propidium iodide (20 ×) in 0.5 mL of buffer were added. Finally, flow cytometry was used for cell cycle detection.

[12] = test system: Ki-67; assay: Ki-67 expression in tumor tissue; type: in vivo, nude mice; conditions: tumor tissue of SW620 xenografts
Experimental: as §2

[13] = Solubility observed during carrier synthesis; type: physicochemical; conditions: water
[14] = Kunming mice, before single oral gavage
[15] = Kunming mice, single oral gavage
[16] = serum, Kunming mice, 15th day after single oral gavage

| Compound | cell-proliferation inhibition effect [2] | cell-proliferation inhibition effect [3] | average necrosis rate [5] [%] | VEGFR-3 positive area [7] | apoptosis rate (TUNEL) [8] [%] | mean tumor inhibitory rate [9] | Bodyweight Start [10, 14] [g] | Bodyweight End [10, 15] [g] | Amount (start/end), survival [10, 15] | ALT [10, 16] [U/L] | AST [10, 16] [U/L] | BUN [10, 16] [mmol/L] | ALT ([10]; mouse, in vivo, po) [U/L] | Average weight change rate ([10]; mouse, in vivo, po) | Bodyweight Start ([10]; mouse, in vivo, po) [g] | Cr ([10]; mouse, in vivo, po) [µmol/L] | also measured |
| --- | --- | --- | --- | --- | --- | --- | --- | --- | --- | --- | --- | --- | --- | --- | --- | --- | --- |
| 2-butyryl oxy-5-butylaminyl benzoic acid [BBA] | some cell-proliferation inhibition effect | some cell-proliferation inhibition effect | 20 | significantly reduced | 3.27 | 41.76% ± 7.56% | 18.48 ± 0.63 | 18.16 ± 0.63 | 5/5 | 18.53 ± 0.65 | 57.27 ± 10.20 | 6.32 ± 0.97 | – | – | – | – | in vitro accumulative release of BBA [1]: 90%; apoptotic rate including early apoptosis and late apoptosis [4]: 32.21% ± 8.26%; AUC0-t [6]: 219.263 ± 5.360 µg·h/mL; CL [6]: 0.21267 ± 0.00447 mL/min/kg; Cmax [6]: 35923 ± 826 ng/mL; MRT0-t [6]: 4.769 ± 0.115 h; Cr [10, 16]: 8.63 ± 1.96 µmol/L; cell cycle arrest [11]: mainly arrested at the G0/G1 phase |
| Nc1ccc(O)c(C(=O)O)c1 [5-ASA, 5-aminosalicylic acid] | – | – | 15 | significantly reduced | 2.44 | 31.33% ± 7.17% | – | – | 5/5 | – | – | – | 23.20 ± 2.87 | 4.63% | 18.58 ± 0.41 | 9.55 ± 0.36 | – |
| O=c1[nH]cc(F)c(=O)[nH]1 [5-FU, 5-fluorouracil] | drastically enhanced the cell proliferation inhibition rate compared with the BBA group | drastically enhanced the cell proliferation inhibition rate compared with the BBA group | 50 | significantly reduced | 8.87 | 85.85% ± 2.89% | – | – | 5/5 | – | – | – | 292.50 ± 6.60 | − 4.46* % | 18.82 ± 0.61 | 7.45 ± 2.91 | Ki-67 positive expression [12]: significant decrease of the positive expression; serum biochemical analysis indexes ([10]; mouse, in vivo): AST and ALT increased significantly; AST ([10]; mouse, in vivo, po): 254.00 ± 53.4 U/L; BUN ([10]; mouse, in vivo, po): 6.92 ± 1.20 mmol/L; Heart index ([10]; mouse, in vivo, po): 0.81 ± 0.28%; Lung index ([10]; mouse, in vivo, po): 0.85 ± 0.11%; decrease of average body weight ([10]; mouse, in vivo, po): 4.46% |
| Nc1nc2ncc(CNc3ccc(C(=O)N[C@@H](CCC(=O)O)C(=O)O)cc3)nc2c(=O)[nH]1 [FA, Folic acid] | – | – | – | – | – | – | – | – | – | – | – | – | – | – | – | – | solubility [13]: too poor |
| CCCC(=O)[O-].[Na+] [NaB, sodium butyrate] | – | – | 10 | significantly reduced | 1.45 | 15.30% ± 5.61% | 18.24 ± 0.53 | 19.14 ± 0.52 | 5/5 | 17.37 ± 1.77 | 58.17 ± 4.75 | 8.60 ± 0.98 | – | – | – | – | Average weight change rate ([10]; Kunming mice, single oral gavage, start to end): 4.93% |
